Experiments:
[1] = tested on: Normal human epidermal keratinocytes (NHEKs); experiment: Evaluation of cellular uptake action of vitamin C: hydroquinone cytotoxicity, neutral red assay; format: cell-based; conditions: then 400 μM hydroquinone 24 hours
Method: This evaluation was performed by quantifying the cytotoxicity of hydroquinone (HQ) when a diacylglycerol PEG adduct, vitamin C, and hydroquinone were added to epidermal cells.
Normal human epidermal keratinocytes (NHEKs) were seeded on a 96-well plate at a cell density of 2.0×10^4 cells/well using HuMedia-KG2 medium and cultured under the conditions of 37° C. and 5% CO: for 24 hours.
Thereafter, using HuMedia-KB2 medium, a sample to which 50 μM of PEG-23 glycerol distearate (GDS23) was added and a sample to which GDS23 was not added were respectively cultured under the conditions of 37° C. and 5% CO: for 24 hours.
Subsequently, the samples were washed with PBS (−), and the GDS23-added samples and the GDS23 non-added samples were respectively cultured in the following six media for 24 hours. • HuMedia-KB2 medium containing 0 μM of ascorbic acid (AsA) • HuMedia-KB2 medium containing 1 μM of ascorbic acid (AsA) • HuMedia-KB2 medium containing 5 μM of ascorbic acid (AsA) • HuMedia-KB2 medium containing 10 μM of ascorbic acid (AsA) • HuMedia-KB2 medium containing 50 μM of ascorbic acid (AsA) • HuMedia-KB2 medium containing 100 μM of ascorbic acid (AsA)
The control (no addition of any of GDS23, AsA, and HQ) was cultured only in HuMedia-KB2 medium.

SVCT2 protein = experiment: Test for enhanced production of SVCT2 proteins (Western blotting); format: cell-based, human; conditions: NHEKs, 50 μM, 24 hours
Method: A test for confirming the enhanced production of proteins encoded by the SVCT2 genes was performed using Western blotting.
Normal human epidermal keratinocytes (NHEKs) were seeded on a 96-well plate at a cell density of 1.0×10^5 cells/well using HuMedia-KG2 medium and cultured under the conditions of 37° C. and 5% CO2 for 24 hours.
Thereafter, 50 μM of PEG-23 glycerol distearate (GDS23) was added thereto using HuMedia-KB2 medium, and the cells were cultured under the conditions of 37° C. and 5% CO2 for 24 hours. A control (no addition) was cultured only in HuMedia-KB2 medium.
After culturing, Western blotting was applied. First, proteins were extracted from the cells using […] containing 10% mercaptoethanol. The protein extract solution was subjected to electrophoresis using a polyacrylamide gel, and the proteins were transferred to a membrane by a semi-dry method. The amount of the SVCT2 protein was corrected with the amount of GAPDH, which is an internal standard in the same sample, and the correction value of the sample was calculated with the correction value of the control set to 1.

GSR gene = experiment: Amplification of mRNA expression of GSR gene (quantitative real-time PCR); format: cell-based, human; conditions: NHEKs, corrected with GAPDH, control = 1
Method: (§1) A test for confirming the amplification of mRNA expression of each transporter-related gene in epidermal cell was performed.
(§2) Normal human epidermal keratinocytes (NHEKs) were seeded on a 96-well plate at a cell density of 2.0×10^4cells/well using HuMedia-KG2 medium (manufactured by Kurabo Industries Ltd.), and cultured under the conditions of 37° C. and 5% CO2 for 24 hours.
(§3) Thereafter, a diacylglycerol PEG adduct was added thereto using HuMedia-KB2 medium (manufactured by Kurabo Industries Ltd.), and each was cultured under the conditions of 37° C. and 5% CO2 for a predetermined time. Table 1 represents the target gene, the types of diacylglycerol PEG adduct added, the adding amount, and the culture time. A control (no addition) was also cultured under the same conditions.
(§4) After the cells were cultured for each predetermined time, RNA was extracted from the cells of each sample and control. The extracted RNA was reverse-transcribed to prepare cDNA, and the mRNA of the target gene was quantified by quantitative real-time PCR expression analysis. […]
(§5) In the analysis, the mRNA expression level of each target gene was corrected with the value of the expression level of GAPDH, which is an internal standard in the same sample, and the correction value of the sample was calculated as a relative expression level when the correction value of the control was set to 1.

[2] = tested on: Normal human epidermal keratinocytes (NHEKs); experiment: Evaluation of cellular uptake action of cystine: hydroquinone cytotoxicity, neutral red assay; format: cell-based; conditions: then 400 μM hydroquinone 24 hours
Method: From the test results of (1) and (2) described above, it was confirmed that the expression of the SLC7A11 genes was enhanced by the application of the diacylglycerol PEG adduct to epidermal cells, and thus the production of the protein, which is the xCT transporter encoded thereby, was enhanced. Therefore, the cellular uptake action of cystine was actually evaluated. This evaluation was performed by quantifying the cytotoxicity of hydroquinone (HQ) when a diacylglycerol PEG adduct, cystine, and hydroquinone were added to epidermal cells.
Normal human epidermal keratinocytes (NHEKs) were seeded on a 96-well plate at a cell density of 2.0×10^4 cells/well using HuMedia-KG2 medium and cultured under the conditions of 37° C. and 5% CO2 for 24 hours.
Thereafter, using HuMedia-KB2 medium, a sample to which 50 μM of PEG-23 glycerol distearate (GDS23) was added and a sample to which GDS23 was not added were respectively cultured under the conditions of 37° C. and 5% CO2 for 24 hours.
Subsequently, the samples were washed with PBS (−), and the GDS23-added samples and the GDS23 non-added samples were respectively cultured in the following three media for 30 hours. The cysteine added to the medium is oxidized in the medium or between cells to be converted into cystine, which is a dimer, and is incorporated into the cells as cystine. • HuMedia-KB2 medium containing 0 μM of cysteine (Cys) • HuMedia-KB2 medium containing 10 μM of cysteine (Cys) • HuMedia-KB2 medium containing 50 μM of cysteine (Cys)
Further, the cells were washed with PBS (−) and cultured in HuMedia-KB2 medium containing 400 μM of hydroquinone (HQ) for 24 hours.
The control (no addition of any of GDS23, Cys, and HQ) was cultured only in HuMedia-KB2 medium.
Thereafter, the cell viability was measured by the neutral red assay. The cell viability was calculated for each of the GDS23-added samples and the GDS23 non-added samples, taking the cell viability of the control as 100%.

ABCC1 gene = experiment: Amplification of mRNA expression of ABCC1 gene (quantitative real-time PCR); format: cell-based, human; conditions: NHEKs, corrected with GAPDH, control = 1
Method: as §1, §2, §3, §4, §5

SVCT2 gene = experiment: Amplification of mRNA expression of SVCT2 gene (quantitative real-time PCR); format: cell-based, human; conditions: NHEKs; 100 μM; culture 30 hr; corrected with GAPDH, control = 1
Method: as §1, §2, §3, §4, §5

SLC7A11 gene = experiment: Amplification of mRNA expression of SLC7A11 gene (quantitative real-time PCR); format: cell-based, human; conditions: NHEKs; 100 μM; culture 24 hr; corrected with GAPDH, control = 1
Method: as §1, §2, §3, §4, §5

Question: What does the source list for PEG-23 glycerol distearate [GDS23]?
Answer: cytotoxicity by hydroquinone (cell viability), GDS23-added versus GDS23 non-added samples ([1]; 50 μM GDS23 24 hours, ascorbic acid 0-100 μM 24 hours): significantly reduced; cell viability of ascorbic acid-added samples versus ascorbic acid non-added sample among GDS23-added samples ([1]; 50 μM GDS23 24 hours, ascorbic acid 1-100 μM 24 hours): higher; SVCT2 protein band (Western blot image) (SVCT2 protein; FIG. 11): increase; amount of the SVCT2 protein (SVCT2 protein; Western blot, corrected with GAPDH, control = 1): about 1.4 times that in the control sample; relative expression level of GSR gene (GSR gene; 50 μM, culture 24 hr): about 1.8 times that of the control; cytotoxicity by hydroquinone (cell viability), GDS23-added versus GDS23 non-added samples ([2]; 50 μM GDS23 24 hours, cysteine 0-50 μM 30 hours): significantly reduced; cell viability of cysteine-added samples versus cysteine non-added sample among GDS23-added samples ([2]; 50 μM GDS23 24 hours, cysteine 10 or 50 μM 30 hours): higher; relative expression level of ABCC1 gene (ABCC1 gene; 50 μM, culture 24 hr): about 2.1 times that of the control

Question: For `O=C1O[C@H]([C@@H](O)CO)C(O)=C1O` [ascorbic acid, reference compound], which “effect of ascorbic acid on the cytotoxicity caused by hydroquinone (cell viability)” value ([1]; GDS23 non-added samples, ascorbic acid 5 to 100 μM, 24 hours, versus ascorbic acid non-added sample) is on record?
Answer: Its value is “almost no effect”.

Question: Which results are given for PEG-12 glycerol dimyristate [GDM12]?
Answer: relative expression level of SVCT2 gene (SVCT2 gene): about 1.4 times that of the control; relative expression level of SLC7A11 gene (SLC7A11 gene): about 1.4 times that of the control; relative expression level of GSR gene (GSR gene; 100 μM, culture 30 hr): about 1.5 times that of the control; relative expression level of ABCC1 gene (ABCC1 gene; 100 μM, culture 30 hr): about 1.3 times that of the control

Question: For `N[C@@H](CS)C(=O)O` [cysteine, reference compound], which “effect of cysteine (cystine) on the cytotoxicity caused by hydroquinone (cell viability)” value ([2]; GDS23 non-added samples, cysteine 10 μM and 50 μM, 30 hours, versus cysteine non-added sample) is on record?
Answer: The value was “almost no effect”.
